ChEMBL document CHEMBL1909046, “DrugMatrix in vitro pharmacology data”

Columns and labels:
[1] = DRUGMATRIX: GABAA, Flunitrazepam, Central radioligand binding (ligand: [3H] Flunitrazepam); assay type: cell membranes, Rattus norvegicus, Wistar, Brain, Membrane; settings: Not Active = under 50% inhibition at 10 µM
[2] = DRUGMATRIX: GABAA, Muscimol, Central radioligand binding (ligand: [3H] Muscimol); assay type: cell membranes, Rattus norvegicus, Wistar, Brain, Membrane; settings: Not Active = under 50% inhibition at 10 µM
[3] = biological target: Histamine H2 receptor (Homo sapiens, UniProt P25021); assay type: cell membranes, CHO-K1, Membrane; settings: cho-k1; further: in other assays of this panel Not Active means under 50% inhibition at 10 µM
[4] = biological target: Glycine receptor (Rattus norvegicus, UniProt P22771+P24524+P07727+P20781); assay type: cell membranes, Wistar, Spinal cord, Membrane; further: in other assays of this panel Not Active means under 50% inhibition at 10 µM
[5] = biological target: T1, Alpha-1A adrenergic receptor (Rattus norvegicus, UniProt P43140); assay: DRUGMATRIX: Alpha-1A adrenergic receptor radioligand binding (ligand: prazosin); assay type: cell membranes, Wistar, Submaxillary gland, Membrane; settings: Not Active = under 50% inhibition at 10 µM; for Ki: read-out: Ki
T1 sequence (P43140 whole entry): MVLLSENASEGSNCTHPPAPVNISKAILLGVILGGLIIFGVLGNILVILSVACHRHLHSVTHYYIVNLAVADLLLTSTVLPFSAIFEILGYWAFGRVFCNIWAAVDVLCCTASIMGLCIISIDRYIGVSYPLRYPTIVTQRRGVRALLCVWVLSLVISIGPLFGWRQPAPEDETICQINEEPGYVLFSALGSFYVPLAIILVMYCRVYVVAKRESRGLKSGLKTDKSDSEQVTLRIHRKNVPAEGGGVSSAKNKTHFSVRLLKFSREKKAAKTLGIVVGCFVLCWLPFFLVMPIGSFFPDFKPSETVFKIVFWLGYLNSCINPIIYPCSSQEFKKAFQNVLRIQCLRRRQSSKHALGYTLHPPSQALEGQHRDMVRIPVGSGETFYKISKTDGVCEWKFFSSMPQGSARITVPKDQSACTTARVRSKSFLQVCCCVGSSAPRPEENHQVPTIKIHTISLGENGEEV

[6] = biological target: T2, Muscarinic acetylcholine receptor M2 (Homo sapiens, UniProt P08172); assay type: cell membranes, CHO-K1, Membrane; settings: cho-k1; further: in other assays of this panel Not Active means under 50% inhibition at 10 µM
T2 sequence (P08172 whole entry): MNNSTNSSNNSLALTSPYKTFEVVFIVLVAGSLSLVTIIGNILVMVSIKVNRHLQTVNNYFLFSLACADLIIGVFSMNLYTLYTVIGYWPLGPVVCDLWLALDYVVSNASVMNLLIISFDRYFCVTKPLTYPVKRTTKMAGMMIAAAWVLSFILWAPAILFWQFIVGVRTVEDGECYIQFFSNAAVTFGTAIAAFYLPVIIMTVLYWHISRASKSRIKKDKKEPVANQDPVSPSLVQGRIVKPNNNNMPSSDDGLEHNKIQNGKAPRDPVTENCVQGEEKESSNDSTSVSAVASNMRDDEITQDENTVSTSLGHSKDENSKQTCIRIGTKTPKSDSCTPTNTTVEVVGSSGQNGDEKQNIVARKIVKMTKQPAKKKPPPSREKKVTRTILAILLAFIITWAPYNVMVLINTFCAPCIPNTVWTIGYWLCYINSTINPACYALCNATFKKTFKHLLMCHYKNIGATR

Chain of Histamine H2 receptor (P25021 whole entry): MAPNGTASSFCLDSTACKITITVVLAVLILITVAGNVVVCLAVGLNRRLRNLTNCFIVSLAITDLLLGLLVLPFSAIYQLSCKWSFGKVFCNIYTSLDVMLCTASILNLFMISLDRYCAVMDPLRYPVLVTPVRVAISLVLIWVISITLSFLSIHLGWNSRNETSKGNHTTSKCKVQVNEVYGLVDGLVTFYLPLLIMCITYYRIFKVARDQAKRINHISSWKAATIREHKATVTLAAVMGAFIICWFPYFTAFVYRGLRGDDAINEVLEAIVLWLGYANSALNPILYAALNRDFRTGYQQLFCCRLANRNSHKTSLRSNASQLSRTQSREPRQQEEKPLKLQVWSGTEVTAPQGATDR

Structure (SMILES)	IC50 [1]	Ki [1]	IC50 [2]	Ki [2]	IC50 [3]	IC50 [4]	IC50 [5]	IC50 [6]	IC50 ([5]; read-out: IC50) [nM]	Ki [5] [nM]	IC50 ([1]; read-out: IC50) [nM]	Ki ([1]; read-out: Ki) [nM]
CN1[C@@H]2CC[C@H]1C[C@@H](OC(=O)C(CO)c1ccccc1)C2 (stereo partly specified) [ATROPINE]	Not Active	Not Active	Not Active	Not Active	Not Active	Not Active	Not Active					
CC(C(=O)O)c1ccc2oc(-c3ccc(Cl)cc3)nc2c1 (stereo unspecified) [BENOXAPROFEN]	Not Active	Not Active	Not Active	Not Active	Not Active	Not Active	Not Active	Not Active				
COc1ccc2cc3[n+](cc2c1OC)CCc1cc2c(cc1-3)OCO2.[Cl-] [BERBERINE CHLORIDE]	Not Active	Not Active	Not Active	Not Active	Not Active	Not Active	Not Active	Not Active				
O=C(O)CCNC(=O)c1ccccc1 [BETAMIPRON]	Not Active	Not Active	Not Active	Not Active	Not Active	Not Active	Not Active	Not Active				
CC(=O)Oc1ccc(C(c2ccc(OC(C)=O)cc2)c2ccccn2)cc1 [BISACODYL]	Not Active	Not Active	Not Active	Not Active	Not Active	Not Active	Not Active	Not Active				
Cc1cc2c(OCC(CNC(C)(C)C)OC(=O)c3ccccc3)cccc2[nH]1 (stereo unspecified) [BOPINDOLOL]	Not Active	Not Active	Not Active	Not Active	Not Active	Not Active	Not Active	Not Active				
Brc1c(NC2=NCCN2)ccc2nccnc12 [BRIMONIDINE]	Not Active	Not Active	Not Active	Not Active	Not Active	Not Active		Not Active	6340	2570		
CN(C)[C@@H]1C(O)=C(C(N)=O)C(=O)[C@@]2(O)C(O)=C3C(=O)c4c(O)ccc(Cl)c4[C@@](C)(O)[C@H]3C[C@@H]12 [CHLORTETRACYCLINE]	Not Active	Not Active	Not Active	Not Active	Not Active	Not Active	Not Active	Not Active				
CN/C(=N\CCSCc1nc[nH]c1C)NC#N [CIMETIDINE]	Not Active	Not Active	Not Active	Not Active		Not Active	Not Active	Not Active				
COc1cc(N)c(Cl)cc1C(=O)NC1CCN(CCCOc2ccc(F)cc2)CC1OC (stereo unspecified) [CISAPRIDE]	Not Active	Not Active	Not Active	Not Active	Not Active	Not Active		Not Active	120	49		
CCC(=O)O[C@]1(C(=O)CCl)[C@@H](C)C[C@H]2[C@@H]3CCC4=CC(=O)C=C[C@]4(C)[C@@]3(F)[C@@H](O)C[C@@]21C [CLOBETASOL PROPIONATE]	Not Active	Not Active	Not Active	Not Active	Not Active	Not Active	Not Active	Not Active				
O=C1CN=C(c2ccccc2Cl)c2cc([N+](=O)[O-])ccc2N1 [CLONAZEPAM]			Not Active	Not Active	Not Active	Not Active	Not Active	Not Active			4.93	4.02
Nc1ccn([C@@H]2O[C@H](CO)[C@@H](O)[C@@H]2O)c(=O)n1 [CYTARABINE]	Not Active	Not Active	Not Active	Not Active	Not Active	Not Active	Not Active	Not Active				
COc1cc2nc(N3CCN(C(=O)c4ccco4)CC3)nc(N)c2cc1OC [PRAZOSIN]	Not Active	Not Active	Not Active	Not Active	Not Active	Not Active		Not Active				
